Data published in patent US7102009B2, “Substituted amine derivatives and methods of use” (Amgen Inc., priority 2001, dated 2006).

Test system: Human Umbilical Vein Endothelial cells (VEGF-stimulated HUVEC proliferation)
Assay: HUVEC Proliferation Assay (VEGF-stimulated)
Type: cell-based
Conditions: VEGF 50 ng/mL, 72 h incubation, CyQuant readout, read-out: inhibited VEGF-stimulated HUVEC proliferation at a level below (IC50)
Description: Human Umbilical Vein Endothelial cells are purchased from Clonetics, Inc., as cryopreserved cells harvested from a pool of donors. These cells, at passage 1, are thawed and expanded in EBM-2 complete medium, until passage 2 or 3. The cells are trypsinized, washed in DMEM+10% FBS+antibiotics, and spun at 1000 rpm for 10 min. Prior to centrifugation of the cells, a small amount is collected for a cell count. After centrifugation, the medium is discarded, and the cells are resuspended in the appropriate volume of DMEM+10% FBS+antibiotics to achieve a concentration of 3×10^5 cells/mL. Another cell count is performed to confirm the cell concentration. The cells are diluted to 3×10^4 cells/mL in DMEM+10% FBS+antibiotics, and 100 μL of cells are added to a 96-well plate. The cells are incubated at 37° C. for 22 h.
Prior to the completion of the incubation period, compound dilutions are prepared. Five-point, five-fold serial dilutions are prepared in DMSO, at concentrations 400-fold greater than the final concentrations desired. 2.5 μL of each compound dilution are diluted further in a total of 1 mL DMEM+10% FBS+antibiotics (400× dilution). Medium containing 0.25% DMSO is also prepared for the 0 μM compound sample. At the 22-hour timepoint, the medium is removed from the cells, and 100 μL of each compound dilution is added. The cells are incubated at 37° C. for 2-3 h.
During the compound pre-incubation period, the growth factors are diluted to the appropriate concentrations. Solutions of DMEM+10% FBS+antibiotics, containing either VEGF or bFGF at the following concentrations: 50, 10, 2, 0.4, 0.08, and 0 ng/mL are prepared. For the compound-treated cells, solutions of VEGF at 550 ng/mL or bFGF at 220 ng/mL for 50 ng/mL or 20 ng/mL final concentrations, respectively, are prepared since 10 μL of each will be added to the cells (110 μL final volume). At the appropriate time after adding the compounds, the growth factors are added. VEGF is added to one set of plates, while bFGF is added to another set of plates. For the growth factor control curves, the media on wells B4-G6 of plates 1 and 2 are replaced with media containing VEGF or bFGF at the varying concentrations (50-0 ng/mL). The cells are incubated at 37° C. for an additional 72 h.
At the completion of the 72 h incubation period, the medium is removed, and the cells are washed twice with PBS. After the second wash with PBS, the plates are tapped gently to remove excess PBS, and the cells are placed at −70° C. for at least 30 min. The cells are thawed and analyzed using the CyQuant fluorescent dye (Molecular Probes C-7026), following the manufacturer's recommendations. The plates are read on a Victor/Wallac 1420 workstation at 485 nm/530 nm (excitation/emission). Raw data are collected and analyzed using a 4-parameter fit equation in XLFit. IC50 values are then determined.

Q: With `O=C(Nc1ccc(C(OC[C@@H]2CCCN2)(C(F)(F)F)C(F)(F)F)cc1)c1cccnc1Nc1ccc2cn[nH]c2c1` [Example 607, 2-(1H-Indazol-6-ylamino)-N-{4-[2,2,2-trifluoro-1-(pyrrolidin-2-ylmethoxy)-1-trifluoromethyl-ethyl]-phenyl}-nicotinamide] as the compound, how does the IC50 read?
A: Its IC50 is under 50 nM.

Q: For `O=C(Nc1cc(CCCN2CCOCC2)cc(C(F)(F)F)c1)c1cccnc1Nc1ccc2cn[nH]c2c1` [Example 70, 2-(1H-Indazol-6-ylamino)-N-[3-(3-morpholin-4-yl-propyl)-5-trifluoromethyl-phenyl]-nicotinamide], which IC50 is on record?
A: The IC50 was under 50 nM.

Q: For `CC1(C)NS(=O)(=O)c2cc(NC(=O)c3cccnc3Nc3ccc4cn[nH]c4c3)ccc21` [Example 76, N-(3,3-Dimethyl-1,1-dioxo-2,3-dihydro-1H-116-benzo[d]isothiazol-6-yl)-2-(1H-indazol-6-ylamino)-nicotinamide], which IC50 is on record?
A: Its IC50 is under 50 nM.

Q: With `CC(=O)N1CC(C)(C)Oc2ccc(NC(=O)c3cccnc3Nc3ccc4cn[nH]c4c3)cc21` [Example 89, N-(4-Acetyl-2,2-dimethyl-3,4-dihydro-2H-benzo[1,4]oxazin-6-yl)-2-(1H-indazol-6-ylamino)-nicotinamide] as the compound, how does the IC50 read?
A: Its IC50 is under 50 nM.

Q: With `CC(C)(C)c1cccc(NC(=O)c2cccnc2Nc2ccc3cn[nH]c3c2)c1` [Example 10, N-[3-(tert-Butyl)phenyl][2-(1H-indazol-6-ylamino)(3-pyridyl)]carboxamide] as the compound, how does the IC50 read?
A: Its IC50 is under 50 nM.

Q: `CC1(C)CC(=O)Nc2cc(NC(=O)c3cccnc3Nc3ccc4cn[nH]c4c3)ccc21` [Example 575, N-(4,4-Dimethyl-2-oxo-1,2,3,4-tetrahydro-quinolin-7-yl)-2-(1H-indazol-6-ylamino)-nicotinamide] was tested. Which IC50 did it give?
A: Its IC50 is under 50 nM.

Q: How did the IC50 turn out when `O=C(Nc1cc(CN2CCNCC2)cc(C(F)(F)F)c1)c1cccnc1Nc1ccc2cn[nH]c2c1` [Example 125, 2-(1H-Indazol-6-ylamino)-N-(3-piperazin-1-ylmethyl-5-trifluoromethyl-phenyl)-nicotinamide] was run?
A: The IC50 was under 50 nM.

Q: `O=C(Nc1ccc(C(F)(F)F)c(OCCN2CCCC2)c1)c1cccnc1Nc1ccc2cn[nH]c2c1` [Example 86, 2-(1H-Indazol-6-ylamino)-N-[3-(2-pyrrolidin-1-yl-ethoxy)-4-trifluoromethyl-phenyl]-nicotinamide] was tested. Which IC50 did it give?
A: Its IC50 is under 50 nM.

Q: How did the IC50 turn out when `CC(C)(C)c1ccc(NC(=O)c2cccnc2Nc2ccc3cn[nH]c3c2)cc1/C=C/CCN1CCCC1` [Example 55, N-[3-((1E)-4-Pyrrolidinylbut-1-enyl)-4-(tert-butyl)phenyl][2-(1H-indazol-6-ylamino)(3-pyridyl)]carboxamide] was run?
A: Its IC50 is under 50 nM.

Q: With `CN1CC=C(c2cc(NC(=O)c3cccnc3Nc3ccc4cn[nH]c4c3)ccc2C(C)(C)C)CC1` [Example 23] as the compound, how does the IC50 read?
A: The IC50 was under 50 nM.

Q: With `O=C(Nc1ccc(C(F)(F)F)cc1)c1cccnc1Nc1ccc2cn[nH]c2c1` [Example 50, [2-(1H-Indazol-6-ylamino)(3-pyridyl)]-N-[4-(trifluoromethyl)phenyl]carboxamide] as the compound, how does the IC50 read?
A: The IC50 was under 50 nM.

Q: `CC(C)(C)c1ccc(NC(=O)c2cccnc2Nc2ccc3cn[nH]c3c2)cc1CCCN1CCCCC1` [Example 54, N-[4-(tert-Butyl)-3-(3-piperidylpropyl)phenyl][2-(1H-indazol-6-ylamino)(3-pyridyl)]carboxamide] was tested. Which IC50 did it give?
A: The IC50 was under 50 nM.

Q: How did the IC50 turn out when `CC(=O)N1CC(C)(C)c2ccc(NC(=O)c3cccnc3Nc3ccc4cn[nH]c4c3)cc21` [Example 87, N-(1-Acetyl-3,3-dimethyl-2,3-dihydro-1H-indol-6-yl)-2-(1H-indazol-6-ylamino)-nicotinamide] was run?
A: Its IC50 is under 50 nM.

Q: How did the IC50 turn out when `O=C(Nc1ccc(C(F)(F)C(F)(F)F)cc1)c1cccnc1Nc1ccc2cn[nH]c2c1` [Example 123, 2-(1H-Indazol-6-ylamino)-N-(4-pentafluoroethyl-phenyl)-nicotinamide] was run?
A: The IC50 was under 50 nM.

Q: How did the IC50 turn out when `O=C(Nc1cc(OCC2CCNCC2)cc(C(F)(F)F)c1)c1cccnc1Nc1ccc2cn[nH]c2c1` [Example 75, 2-(1H-Indazol-6-ylamino)-N-[3-(piperidin-4-ylmethoxy)-5-trifluoromethyl-phenyl]-nicotinamide] was run?
A: The IC50 was under 50 nM.

Q: `CC(C)(C)c1ccc(NC(=O)c2cccnc2Nc2ccc3cn[nH]c3c2)cc1` [Example 8, N-[4-(tert-Butyl)phenyl][2-(1H-indazol-6-ylamino)(3-pyridyl)]carboxamide] was tested. Which IC50 did it give?
A: The IC50 was under 50 nM.

Q: With `CC(=O)N1Cc2cc(NC(=O)c3cccnc3Nc3ccc4cn[nH]c4c3)ccc2C(C)(C)C1` [Example 94, N-(2-Acetyl-4,4-dimethyl-1,2,3,4-tetrahydro-isoquinolin-7-yl)-2-(1H-indazol-6-ylamino)-nicotinamide] as the compound, how does the IC50 read?
A: Its IC50 is under 50 nM.

Q: How did the IC50 turn out when `CC(C)N1CCC[C@H]1COc1cc(NC(=O)c2cccnc2Nc2ccc3cn[nH]c3c2)cc(C(F)(F)F)c1` [Example 583, 2-(1H-Indazol-6-ylamino)-N-(3-((((2S)-1-(1-methylethyl)-2-pyrrolidinyl)methyl)oxy)-5-(trifluoromethyl)phenyl)-3-pyridinecarboxamide] was run?
A: The IC50 was under 50 nM.

Q: For `COc1ccc(NC(=O)c2cccnc2Nc2ccc3cn[nH]c3c2)cc1O` [Example 36, N-(3-Hydroxy-4-methoxyphenyl)[2-(1H-indazol-6-ylamino)(3-pyridyl)]carboxamide], which IC50 is on record?
A: The IC50 was under 50 nM.

Q: Which IC50 does the source give for `O=C(Nc1ccc(C(F)(F)C(F)(F)F)c(OC[C@H]2CCCN2)c1)c1cccnc1Nc1ccc2cn[nH]c2c1` [Example 84, 2-(1H-Indazol-6-ylamino)-N-[4-pentafluoroethyl-3-(2R-pyrrolidin-2-ylmethoxy)-phenyl]-nicotinamide] here?
A: The IC50 was under 50 nM.

Q: Which IC50 does the source give for `CC1(C)CNCc2cc(NC(=O)c3cccnc3Nc3ccc4[nH]c(=O)[nH]c4c3)ccc21` [Example 594, N-(4,4-Dimethyl-1,2,3,4-tetrahydro-isoquinolin-7-yl)-2-(2-oxo-2,3-dihydro-1H-benzoimidazol-5-ylamino)-nicotinamide] here?
A: The IC50 was under 50 nM.

Q: How did the IC50 turn out when `O=C(Nc1ccc(C(F)(F)C(F)(F)F)c(OC[C@@H]2CCCN2)c1)c1cccnc1Nc1ccc2cn[nH]c2c1` [Example 83, 2-(1H-Indazol-6-ylamino)-N-[4-pentafluoroethyl-3-(2S-pyrrolidin-2-ylmethoxy)-phenyl]-nicotinamide] was run?
A: Its IC50 is under 50 nM.

Q: With `CC1(C)CN(S(C)(=O)=O)c2cc(NC(=O)c3cccnc3Nc3ccc4cn[nH]c4c3)ccc21` [Example 625, N-(3,3-dimethyl-1-(methylsulfonyl)-2,3-dihydro-1H-indol-6-yl)-2-(1H-indazol-6-ylamino)-3-pyridinecarboxamide] as the compound, how does the IC50 read?
A: The IC50 was under 50 nM.

Q: With `CC(C)Oc1ccc(NC(=O)c2cccnc2Nc2ccc3cn[nH]c3c2)cc1` [Example 28, [2-(1H-Indazol-6-ylamino)(3-pyridyl)]-N-[4-(methylethoxy)phenyl]carboxamide] as the compound, how does the IC50 read?
A: Its IC50 is under 50 nM.

Q: For `COCCOCCOC(c1ccc(NC(=O)c2cccnc2Nc2ccc3cn[nH]c3c2)cc1)(C(F)(F)F)C(F)(F)F` [Example 64], which IC50 is on record?
A: The IC50 was under 50 nM.

Q: How did the IC50 turn out when `CN(C)CC(=O)Nc1cc(NC(=O)c2cccnc2Nc2ccc3cn[nH]c3c2)ccc1C(C)(C)C` [Example 613, N-(4-(1,1-Dimethylethyl)-3-((N,N-dimethylglycyl)amino)phenyl)-2-(1H-indazol-6-ylamino)-3-pyridinecarboxamide] was run?
A: The IC50 was under 50 nM.

Q: With `CC(C)(C)c1ccc(NC(=O)c2cccnc2Nc2ccc3cn[nH]c3c2Br)cc1` [Example 22, N-[4-(tert-Butyl)phenyl]{2-[(7-bromo(1H-indazol-6-yl))amino](3-pyridyl)}carboxamide] as the compound, how does the IC50 read?
A: The IC50 was under 50 nM.
